Assay results as given in patent EP3797781A1, “USE OF EC-7072 AND SYNERGIC COMPOSITIONS THEREOF IN TREATMENT OF CHRONIC LYMPHOCYTIC LEUKEMIA” (priority 2019, dated 2021).

Test system: CD79A, CD79B and IgM
Assay: Surface expression of BCR complex components on leukemia cells by flow cytometry
Assay type: cell-based, human
Conditions: 200 nM, 8 hours; n = 5 - 6
Excerpt: To determine immune cell populations, the following antibodies were employed: anti-CD19-APC, anti-CD3-APC, anti-CD4-PerCP and anti-CD8-APC (all from Immunostep); anti-CD3-FITC and anti-CD56-APC (Cytognos); and anti-CD3-PE/Cy7 and anti-CD5-APC/Cy7 (Biolegend). The subsets of immune cells were identified as follows: T cells were defined as CD3^+CD56^-, NK cells were identified as CD3^-CD56^+ and healthy B cells as CD19^+. Leukemia cells were defined as CD19^+, as the percentage of healthy B cells (CD19^+CD5^-) detected in PBMCs from patients with CLL was less than 2% (data not shown). Additionally, antibodies from Biolegend were used to detect surface expression of CD79A (clone: HM47), CD79B (clone: CB3-1) and IgM (clone: MHM-88). Cells were analyzed in a BD FACS Canto II flow cytometer with FACS Diva software (Beckton Dickinson).
The inhibition of the tonic BCR pathway by EC-7072 was evaluated by: • (i) incubating PBMCs from patients with CLL, following treatment with 200 nM EC-7072, for 8 hours. Surface expression of CD79A (Figure 7A), CD79B (Figure 7B) and IgM (Figure 7C) in leukemia cells (n = 5 - 6) was assessed by flow cytometry and the MFI was normalized to the control (DMSO) condition; • (ii) incubating isolated leukemia cells from patients with CLL (n = 10), following treatment with EC-7072 (200 nM), for 8 hours. […]

`CO[C@@H]([C@@H]1Cc2cc3cc(O[C@H]4C[C@@H](O[C@H]5C[C@@H](O)[C@H](O)[C@@H](C)O5)[C@H](O)[C@@H](C)O4)c(C)c(O)c3c(O)c2C(=O)[C@H]1O[C@H]1C[C@@H](O[C@H]2C[C@@H](O[C@H]3C[C@](C)(O)[C@H](O)[C@@H](C)O3)[C@@H](O)[C@@H](C)O2)[C@H](O)[C@@H](C)O1)[C@@H](O)C(C)=O` [EC-7072, mithramycin SK] was tested. Which “CD79A CLL cell surface expression” value did it give?
The value was “unchanged”.

And the “CD79B and IgM CLL cell surface expression” value?
The value was “significantly decreased”.
